SMILES strings stand for the structures.

A short description of this test: Inhibition of influenza A virus (A/Perth/16/2009(H3N2)) neuraminidase using MUNANA substrate pre-incubated for 30 mins before substrate addition by fluorometric assay.
On to `O=c1cc(O)cc2oc(-c3ccc(O)c(O)c3)c(O[C@@H]3O[C@H](CO)[C@H](O)[C@H](O)[C@H]3O)c(O)c1-2` [2-(3,4-Dihydroxy-phenyl)-5,7-dihydroxy-3-((2S,4R,5R)-3,4,5-trihydroxy-6-hydroxymethyl-tetrahydro-pyran-2-yloxy)-chromen-4-one], for which the half-inhibitory concentration (IC50) – broadly, the concentration needed to halve the response being measured – is 85.5 µM.
Next, `O=c1cc(O)cc2oc(-c3ccc(O)c(O)c3)c(O[C@@H]3O[C@H](CO)[C@@H](O)[C@H](O)[C@H]3O)c(O)c1-2` [Quercetin 3-O-beta-D-glucoside]: 477 µM; `C[C@@H]1O[C@@H](Oc2c(-c3ccc(O)c(O)c3)oc3cc(O)cc(O)c3c2=O)[C@H](O)[C@H](O)[C@H]1O` [CHEBI:17558]: 121 µM; `O=c1cc(-c2ccc(O)c(O)c2)oc2cc(O[C@@H]3O[C@H](CO)[C@@H](O)[C@H](O)[C@H]3O)cc(O)c12`: 51.2 µM.
Next, `O=c1c(O)c(-c2ccc(O)cc2)oc2cc(O)cc(O)c12`: 42.2 µM.

The values are drawn from BindingDB's records for doi:10.1016/j.bmcl.2014.07.010 (Freie Universitaet Berlin, 2014).
